From US20130116225A1, “METHOD FOR TREATING HEMATOLOGICAL CANCERS” (NIIKI PHARMA INC., priority 2010, published 2013)
“Also recorded” adds a separate entry of the source. Read-outs that look alike come from different tables or passages of the source.

Key:
[1] = system: daunorubicin-resistant Nalm-6 cells; conditions: daunorubicin-resistant Nalm-6, P-gp overexpressing; 72 hours
Method: (§7) After 72 hours of incubation with different concentrations of the agent, DNA fragmentation was measured via FACS scan analysis. […] Values of DNA fragmentation are given as percentages of cells with hypodiploid DNA±s.d. (n=3);
(§8) Apoptotic cell death was determined by a modified cell cycle-analysis, which detects. DNA fragmentation on the single cell level. […] After a 72-hour incubation period at a temperature of 37° C., cells were collected by centrifugation at 1500 rpm for 5 min, washed with PBS at 4° C. and fixed in PBS/2% (v/v) formaldehyde on ice for 30 minutes. After fixation, cells were pelleted, incubated with ethanol/PBS (2:1, v/v) for 15 minutes, pelleted and resuspended in PBS containing 40 μg/ml RNase. RNA was digested for 30 minutes at a temperature of 37° C., after which the cells were pelleted again and finally resuspended in PBS containing 50 μg/ml propidium iodide. Nuclear DNA fragmentation was quantified by flow cytometric determination of hypodiploid DNA. Data were collected and analyzed using a FACScan instrument (Becton Dickinson, Heidelberg, Germany) equipped with CELL Quest software. Data are given in percent hypodiploidy (subG1), which reflects the number of apoptotic cells.

BJAB lymphoma cells [2] = test: Apoptosis induction, flow cytometric hypodiploid DNA (DNA fragmentation); type: cell-based, human; conditions: 72 hours
Method: FIG. 3 is a diagram showing apoptosis induction measured via flow cytometric determination of hypodiploid DNA in BJAB cells after treatment with tris(8-quinolinolato)gallium(III) for 72 hours. Data are given in % hypodiploidy (subG1)±ESD (n=3), which is consistent with the number of apoptotic cells;
DNA fragmentation on the single cell level.
To quantify the induction of apoptosis triggered by tris(8-quinolinolato)gallium(III) we determined the DNA fragmentation (hypodiploidy) as a characteristic effect of apoptotic cell death. The procedure was conducted by flow cytometric measurement of hypodiploid DNA after incubating lymphoma cells (BJAB) for 72 hours with the agent. Extensive apoptosis induction could be reached even in low concentrations of the agent (AC50: ˜1 μM), seen in FIG. 3.

BJAB lymphoma cells [3] = test: LDH release cytotoxicity assay; type: cell-based, human; conditions: 1 hour exposure
Method: Cytotoxicity of the different drugs was measured by the release of lactate dehydrogenase (LDH). After incubation with different concentrations of tris(8-quinolinolato)gallium(III) for 1 hour, LDH activity released by BJAB cells was measured in the cell culture supernatants using the Cytotoxicity Detection Kit from Boehringer Mannheim® (Mannheim, Germany). The supernatants were centrifuged at 1500 rpm for 5 min. 20 μl of cell-free supernatants were diluted with 80 μl phosphate-buffered saline (PBS), and 100 μl reaction mixture containing 2-[4-iodophenyl]-3-[4-nitrophenyl]-5-phenyltetrazolium chloride (INT), sodium lactate, […] and diaphorase were added. Then, time-dependent formation of the reaction product was quantified photometrically at 490 nm. The maximum amount of LDH activity released by the cells was determined after lysis of the cells using 0.1% Triton X-100 in culture medium and set to represent 100% cell death.
Unspecific cytotoxic effects of the agent such as necrosis could be excluded by determination of extra cellular lactate dehydrogenase (LDH) via ELISA detection.

BJAB lymphoma cells [4] = test: Cell viability and proliferation, CASY Cell Counter; type: cell-based, human
Method: FIG. 1 is a graph showing cell viability and inhibition of proliferation of BJAB lymphoma cells by tris(8-quinolinolato)gallium(III), which inhibits proliferation in a dose-dependent manner up to 100% (exposure time 24 hours);
Cell viability was determined by using the CASY® Cell Counter+Analyzer System of Innovatis (Bielefeld, Germany). Settings were specifically defined for the requirements of the cells used. With this system the cell concentration can be analyzed simultaneously in three different size ranges: thus cell debris, dead cells, and viable cells could be determined in one measurement. Cells were seeded at a density of 1×10^5cells/ml and treated with different concentrations of […]; non-treated cells served as controls. After a 24-hour incubation period, cells were re-suspended completely, and 100 μl of each well were diluted in 10 ml CASYton (ready-to-use isotonic saline solution) for immediate automated counting.
In order to assess the antiproliferative effects of tris(8-quinolinolato)gallium(III), BJAB lymphoma cells were exposed to various concentrations of the drug for 24 hours. The determination of cell viability and cell count were carried out with a CASY® Cell Counter and Analyzer System.

[5] = system: DoHH2 Human EBV-negative B Cell Lymphoma cells; test: Anti-proliferation assay, Cell Titer-Glo (Example 6); type: cell-based; conditions: 96 total hours of culture
Method: (§1) To determine the antiproliferative activity of tris(8-quinolinolato)gallium(III) in human lymphoma tumor cell lines, anti-proliferation assays were conducted in the DoHH2. Granta 519, and WSU-DLCL2 cell lines. The DoHH2 Human EBV-negative B Cell Lymphoma cells were seeded with 5,000 cells/well and grown in RPMI1640 medium containing 20% FBS, and 2 mM L-Glutamine. The Granta 519 Human Mantle Cell Lymphoma cells were seeded with 10,000 cells/well and grown in DMEM medium containing 10% FBS, and 2 mM L-Glutamine. The WSU-DLCL2 Human B Cell Lymphoma cells were seeded with 5,000 cells/well and grown in RPMI1640 medium containing 10% FBS, and 2 mM L-Glutamine. Specifically, the human tumor cells were placed in a 96-well microculture plate at the appropriate density for 96 hours of total growth time. After 24 hours of incubation in a humidified incubator at 37° C. with 5% CO2 and 95% air, serially diluted test agents in growth medium were added to each well. After 96 total hours of culture in a CO2 incubator, the plates were processed with Cell Titer-Glo (Promega #G7571) according to manufacturer's instructions. Luminescence was detected using a Tecan GENios microplate reader. Percent inhibition of cell growth was calculated relative to untreated control wells. All tests were performed in duplicate at each concentration level. The IC50 value for the test agents was estimated using Prism 3.03 by curve-fitting the data using the four parameter-logistic equation as described in Example 4 above. […] It is known that WSU-DLCL2 cells are resistant to the CHOP (cyclophosphamide, adriamycin, vincristine, prednisone) regimen. See Levi et al., Cancer Chemother. Pharmacal., (published online Aug. 31, 2010). Thus, tris(8-quinolinolato)gallium(III) is also active against lymphoma cells resistant to drugs. such as cyclophosphamide, adriamycin, vincristine, prednisone.

[6] = system: WSU-DLCL2 Human B Cell Lymphoma cells; test: as above; type: cell-based; conditions: 96 total hours of culture
Method: as §1

[7] = system: Granta 519 Human Mantle Cell Lymphoma cells; test: as above; type: cell-based; conditions: 96 total hours of culture
Method: as §1

[8] = system: vincristine-resistant Nalm-6 cells; conditions: vincristine-resistant Nalm-6, P-gp overexpressing; 72 hours
Method: as §7, §8

[9] = system: caspase-5 gene expression in BJAB cells; test: Real-time PCR apoptosis gene expression array; type: cell-based, human; conditions: 2.5 μM, 8 hours
Method: (§2) For the analysis of the differential expression of multiple genes involved in the different apoptosis pathways, apoptosis-specific RT2 profiler (polymerase chain reaction) PCR expression arrays (SuperArray PAHS-012; SABiosciences Corporation, Frederick, Md., USA) was used according to the manufacturer's instructions. Total RNA was extracted from BJAB cells treated with […] for 8 hours, and RNAs were treated with DNase I (2 U/μl) to eliminate possible genomic DNA contamination. Total RNA (700 ng/μl) was then used as a template for the synthesis of a cDNA probe and subjected to quantitative real-time PCR SuperArray analysis according to the manufacturer's instructions using a LightCycler480 (Roche Diagnostics). The means of nine housekeeping genes were used to normalize the hybridization signals. Results were analyzed using SuperAnay Analyser Software, and the data are given in-fold expression of the respective genes as compared with control cells incubated in vehicle-containing medium for 8 hours.
(§3) Changes of transcript levels of apoptosis relevant genes were analyzed in RNA isolated from BJAB cells after 8 hours of incubation with 2.5 μM tris(8-quinolinolato)gallium(III). […] Harakiri (Hrk) is a pro-apoptotic Bcl-2 homology domain 3-only protein of the Bcl-2 family.

[10] = system: Harakiri gene expression in BJAB cells; test: Real-time PCR apoptosis gene expression array; type: cell-based, human; conditions: 2.5 μM, 8 hours
Method: as §2, §3

MV4-11 leukemia cells = test: Cell growth inhibition, Cell Titer-Glo (Example 4); type: cell-based, human; conditions: 96 total hours of culture
Method: The human leukemia cell line MV4-11 cells were placed in a 96-well microculture plate (Costar white, flat bottom #3917) in a total volume of 90 μL/well. After 24 hours of incubation in a humidified incubator at 37° C. with 5% CO2 and 95% air, 10 μL of 10×, serially diluted tris(8-quinolinolato)gallium(III) in growth medium was added to each well. After 96 total hours of culture in a CO2 incubator, the plated cells and Cell Titer-Glo (Promega #G7571) reagents were brought to room temperature to equilibrate for 30 minutes. 100 μL of Cell Titer-Glo® reagent was added to each well. The plate was shaken for 2 minutes and then left to equilibrate for 10 minutes before reading luminescence on the Tecan GENios microplate reader. Percent inhibition of cell growth was calculated relative to untreated control wells. All tests were performed in duplicate at each concentration level. The IC50 value for the test agent was estimated using Prism 3.03 by curve-fitting the data using the following four parameter-logistic equation: […]
where Top is the maximal % of control absorbance, Bottom is the minimal of control absorbance at the highest agent concentration, Y is the % of control absorbance, X is the agent concentration, IC50 is the concentration of agent that inhibits cell growth by 50% compared to the control cells, and n is the slope of the curve. […]

[11] = system: caspase-9 and caspase-3 in BJAB cells; test: Western blot analysis of caspase activation; type: cell-based, human; conditions: 24 hours
Method: FIG. 6 includes chromatograms showing Western blot analysis of tris(8-quinolinolato)gallium(III)-treated BJAB cells. Epirubicin was used as a positive control. After incubation for 24 hours the protein extracts were fractionated on a denaturating 4-20% polyacrylamide gel, transferred to nitrocellulose and detected with anti-caspase-31-9 and anti-β-actin antibody. A: caspase-9 (procaspase: 47 kDa; cleavage product: 37 kDa), B: caspase-3 (procaspase: 32 kDa; cleavage products: 18 and 17 kDa), C: β-actin (42 kDa);
For Western blot analysis, cytosolic protein ([…]) was loaded in each lane and was separated by sodium dodecylsulfate (SDS) PAGE. After blotting of proteins onto nitrocellulose membranes (Schleicher and Schuell, Dassel, Germany), the membrane was blocked for 1 h in PBST (PBS containing 0.05% Tween-20) containing 3% nonfat dry milk and incubated with primary antibody overnight at 4° C. After the membrane had been washed three times in PBST, secondary antibody in PBST was applied for 1 h. […]
Further evidence for apoptosis via the intrinsic pathway was obtained by investigating the consecutive activation of caspase-9 and -3 by Western blot analysis. […] The activation of both caspases by proteolytic cleavage was determined after treatment of BJAB cells with tris(8-quinolinolato)gallium(III). […]

[12] = system: CCRF-CEM, Jurkat, MOLT-4 cell lines; conditions: read-out: IC50, inhibiting cell growth and proliferation; all cell lines of Table 1; 48 hours with drug; XTT
Method: Cells have been expanded under appropriate culture conditions until sufficient cells were available for the assay. Adherent cells were trypsinated. Cell count and viability of the cells were determined (Casy T T, Schärfe Systems). The Cells (viability >95%) were seeded in 100 μl of cell culture medium at the appropriate density of living cells into 96-well tissue culture plates. The cells were incubated at 37° C. and 5% CO2 for 24 hours.
For a negative control, 100 μl of cell culture medium were added to three wells (100% value). For a positive control all cells were deadened with phenol (0% value). The cells were incubated with the drug for further 48 hours at 37° C. and 5% CO2.
XTT assays were performed on the above treated cells. XTT is a tetrazolium salt that can be cleaved by “succinate-tetrazolium reductase”, a mitochondrial redox-system that is exclusively active in living cells. The cleavage results in a soluble formazan salt that can be quantified by colorimetric measuring at 450 nm. The intensity of the orange color is directly linked to the number of living, metabolically active cells. A concentrated stock solution (1 mg/ml PBS) of XTT (Sigma-Aldrich) was prepared, aliquoted, filtered and stored at −20° C. […] The developed formazan was quantified in an absorbance micro plate reader (Genios, Tecan) at a measurement wavelength of 450 nm and a reference wavelength of 690 nm.

[13] = system: ARH-77 multiple myeloma cells; test: Anti-proliferation assay, Cell Titer-Glo (Example 3); type: cell-based, human; conditions: 96 hours total culture
Method: (§4) To determine the growth inhibitory activity of tris(8-quinolinolato)gallium(III) and lenalidomide, a representative panel of human multiple myeloma tumor cell lines (OPM-2, RPMI-8226, NCI-H929 and ARH-77) were tested with the compounds in anti-proliferation assays. Specifically, the human tumor cells were placed in a 96-well microculture plate at the appropriate density for 96 hours of total growth time. After 24 hours of incubation in a humidified incubator at 37° C. with 5% CO2 and 95% air, serially diluted test agents in growth medium were added to each well. After 96 total hours of culture in a CO2 incubator, the plates were processed with Cell Titer-Glo (Promega #G7571) according to manufacturer's instructions. Luminescence was detected using a Tecan GENios microplate reader. Percent inhibition of cell growth was calculated relative to untreated control wells. All tests were performed in duplicate at each concentration level.
(§5) The IC50 value for the test agents was estimated using Prism 3.03 by curve-fitting the data using the following four parameter-logistic equation: […]
(§6) where Top is the maximal % of control absorbance, Bottom is the minimal % of control absorbance at the highest agent concentration, Y is the % of control absorbance, X is the agent concentration, IC50 is the concentration of agent that inhibits cell growth by 50% compared to the control cells, and n is the slope of the curve.

[14] = system: NCI-H929 multiple myeloma cells; test: as above; type: cell-based, human
Method: as §4, §5, §6

[15] = system: OPM-2 multiple myeloma cells; test: as above; type: cell-based, human; conditions: 96 hours total culture
Method: as §4, §5, §6

[16] = system: RPMI-8226 multiple myeloma cells; test: as above; type: cell-based, human; conditions: 96 hours total culture
Method: as §4, §5, §6

## [Ga+3].[O-]c1cccc2cccnc12.[O-]c1cccc2cccnc12.[O-]c1cccc2cccnc12 [tris(8-quinolinolato)gallium(III)]
[1]
  apoptosis (DNA fragmentation) in resistant cells versus control cells: higher apoptotic amounts in the resistant cells compared to the control cells
BJAB lymphoma cells [2]
  AC50: ~1000 nM
BJAB lymphoma cells [2]; read-out: LC50, apoptosis by DNA fragmentation
  CC50: ~1000 nM
BJAB lymphoma cells [3]
  LDH release (unspecific cytotoxicity, necrosis): negligible; also recorded: no significant LDH release
BJAB lymphoma cells [4]; 24 hours
  concentration giving complete block of proliferation: ≥ 2 µM
BJAB lymphoma cells [4]; 24 hours, read-out: IC50, inhibition of proliferation
  IC50: < 1000 nM
BJAB lymphoma cells [4]; exposure time 24 hours
  inhibition of proliferation, maximal: up to 100%
[5]
  IC50: 213 nM
[6]
  IC50: 1470 nM
[7]
  IC50: 2900 nM
[8]
  apoptosis (DNA fragmentation) in resistant cells versus control cells: higher apoptotic amounts in the resistant cells compared to the control cells
[9]
  caspase-5 gene expression, upregulation: 118 fold
[10]
  Harakiri gene expression, upregulation: 29 fold
MV4-11 leukemia cells
  IC50: 1440 nM
[11]
  processing of procaspase-3 and procaspase-9: induces processing of procaspase-3 (p32) and procaspase-9 (p47)
[12]
  IC50: < 3.5 µM
[13]; read-out: IC50
  IC50: 890 nM
[14]; 96 hours total culture
  IC50: 1.57 µM
[15]
  IC50: 0.74 µM
[16]; read-out: IC50
  IC50: 820 nM

## Nc1cccc2c1CN(C1CCC(=O)NC1=O)C2=O (stereo not drawn) [Lenalidomide, lenalidomide, reference compound]
[13]
  IC50: Inactive
[14]; Homo sapiens, NCI-H929, 96 hours total culture
  IC50: 5.28 µM
[15]; Homo sapiens
  IC50: 5.83 µM
[16]
  IC50: Inactive
